Laboratory results taken from US20130150354A1, “NEW SELECTIVE CCR2 ANTAGONISTS” (BOEHRINGER INGELHEIM INTERNATIONAL GMBH, priority 2011, published 2013).

How the values were obtained:
human CCR5 = biological target: T1, human CCR5 (Homo sapiens, UniProt P51681); test: CCR5 receptor membrane binding assay (CHO (Gα16) human CCR5 membranes, [125I]RANTES, SPA beads); settings: 6 h, read-out: hKi [nM] (CCR5)
T1 construct: expressed in transfected cells; host or cells: CHO cells co-expressing Gα16, grown under puromycin and zeocin selection; membrane preparation
T1 sequence (P51681 whole entry): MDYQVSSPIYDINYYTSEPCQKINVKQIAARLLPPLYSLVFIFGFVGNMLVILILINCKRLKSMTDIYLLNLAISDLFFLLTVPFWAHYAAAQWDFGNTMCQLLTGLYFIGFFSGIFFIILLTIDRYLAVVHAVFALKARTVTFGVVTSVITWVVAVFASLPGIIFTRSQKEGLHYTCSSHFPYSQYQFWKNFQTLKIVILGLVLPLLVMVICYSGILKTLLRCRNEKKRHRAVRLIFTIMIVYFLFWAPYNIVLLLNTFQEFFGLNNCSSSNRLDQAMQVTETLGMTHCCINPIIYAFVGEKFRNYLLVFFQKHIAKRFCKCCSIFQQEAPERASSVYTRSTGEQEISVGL
Protocol: The above exemplary substances have been tested for binding to CCR5 using a binding assay as outlined herein below:
CHO, (Gα16) human CCR5 cells were cultured under standardized conditions at 37° C. and 5% CO2 in a humidified incubator. CHO (Gα16) human CCR5 cells were cultivated in Ham's F12 (Invitrogen; #31765068) supplemented with 10 µg/ml Puromycin (Invitrogen; #A11139-03), 200 µg/ml Zeocin (Invitrogen; #45-0003) and 10% FCS (Gibco; #10500-064).
Membranes were prepared from CHO (Gα16) human CCR5 cells. Cells were cultured on […] plates (Nunc; #166508) 2-3 days before membrane preparation (usually 80-100 plates to obtain 80 mg protein).
Cells were scraped off the plates with a big scraper and washed with 2×5 ml ice cold Phosphate Buffer Saline (PBS; Invitrogen; #14040-174). Cell suspension was collected in a glass bottle (on ice). Cell suspension was harvested at 1400 rpm and 4° C. for 10 min and washed in PBS. Cell pellet was resuspended in 40 ml PBS with protease inhibitor mix ‘complete’ (Roche; #11873580001; 1 tablet/50 ml).
For gentle cell disruption the membrane preparation was performed by using a homogenizer (potter). Cells were homogenized for 5-10 min.
Membranes were centrifuged at 1000 rpm and 4° C. for 5 min. Supernatant (=membrane) was harvested in a new falcon tube and remaining cell pellet homogenized again for 5-10 min with PBS with protease inhibitor mix and centrifuged. Collected supernatant was centrifuged at 40000 rpm and 4° C. for 30 min to sediment the cell membranes.
The membranes were resuspended in 25 mM HEPES, 25 mM MgCl2, 1 mM CaCl2, 10% Glycerine for storage in aliquots at −80° C. Membranes were diluted to a concentration of 5 mg/ml (Bradford Assay).
[^125I]RANTES, Stock: 1825 Ci/mmol, 25 μCi (Bio Trend #A3-AI-676) was solved in 1000 μl assay buffer (100 mM NaCl; 10 mM MgCl2; 50 mM Tris-HCl; 1 mM EDTA; 0.1% BSA, pH 7.6), stored at −20° C.
CHO (Gα16) human CCR5 membrane were solved on ice and adjusted with assay buffer to a concentration of 2.5 μg/15 μl.
Amersham Biosciences PVT-WGA Beads (GE Healthcare; #RPNQ0001) were adjusted with assay buffer to a concentration of 8 mg/ml. For preparation of the membrane-bead-suspension, membranes and beads were incubated for 30 min at RT under rotation with a ratio of 1:2.
Test compounds dissolved in 100% DMSO to a concentration of 10 mM and are further diluted with 100% DMSO to 1 mM. All additional compound dilutions were obtained with assay buffer, final 1% DMSO. 7 μl compound dilution, 45 μl membrane-bead-suspension and 10 μl [^125I]RANTES (ca. 20000 cpm/10 μl) were incubated at RT. Bound radioactivity was determined by scintillation counter after 6 h. Determination of affinity of test compounds (dissociation constant Ki) is calculated by iterative fitting of experimental data using the “easy sys” program, which is based on law of mass action (Schittkowski K. (1994), Numerische Mathematik, Vol. 68, 129-142).

CCR2 = biological target: T2, CCR2 (Homo sapiens, UniProt P41597); test: CCR2 receptor membrane binding assay (THP-1 membranes, 125I-MCP-1, SPA beads); settings: THP-1 cell membranes, 125I-MCP-1, 8 h; read-out: hKi [nM] (CCR2)
T2 construct: Membranes were prepared from THP-1 cells; endogenous in cells; host or cells: THP-1 (human acute monocytic leukaemia cells), membrane preparation
T2 sequence (P41597 1-360 isoform P41597-2): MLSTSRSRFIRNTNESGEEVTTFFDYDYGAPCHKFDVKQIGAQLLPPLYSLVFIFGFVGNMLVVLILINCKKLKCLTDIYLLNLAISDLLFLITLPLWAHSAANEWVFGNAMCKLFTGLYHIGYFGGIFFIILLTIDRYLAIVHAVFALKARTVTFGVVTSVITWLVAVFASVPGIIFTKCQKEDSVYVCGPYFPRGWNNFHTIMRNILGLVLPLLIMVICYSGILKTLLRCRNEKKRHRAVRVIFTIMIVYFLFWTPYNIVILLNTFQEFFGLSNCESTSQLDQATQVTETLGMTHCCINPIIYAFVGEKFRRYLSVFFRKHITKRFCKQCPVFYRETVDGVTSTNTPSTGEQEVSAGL
Protocol: The above exemplary substances have been tested for binding to CCR2 using a binding assay as outlined herein below:
THP-1 cells (human acute monocytic leukaemia cells) were cultured under standardized conditions at 37° C. and 5% CO2 in a humidified incubator. THP-1 cells were cultivated in RPMI 1640 medium (Gibco 21875) containing 1% MEM-NEAA (Gibso 11140) 2 mM L-glutamine, 1.5 g/L sodium bicarbonate, 4.5 g/L glucose, 10 mM HEPES and 1.0 mM sodium pyruvate, 90%; 10% fetal calf serum (FCS Gibco 10500-064).
Membranes were prepared from THP-1 cells. THP-1 cells were centrifuged at 300×g at 4° C. for 10 min. The cell pellet was resuspendet in Phosphate Buffer Saline (PBS, including 10 μM Pefabloc and a protease inhibitor mix ‘complete’, Boehringer Mannheim (1 tablet/50 ml)), to a concentration of […]. The membrane preparation was performed by disrupting the cells by nitrogen […] (at 50 bar, for 1 h) in a “Nitrogen Bombe” (Parr Instrument). Cell debris was removed by centrifugation (800×g at 4° C., 1 min). The supernatant was centrifuged at 80000×g, 4° C. for 30 min to sediment the cell membranes. Usually 50 mg of protein (Bradford assay) were yielded from 1×10E9 cells. The membranes were resuspendet in 25 mM HEPES, 25 mM MgCl2, 1 mM CaCl2, 10% Glycerine for storage in aliquots at −80° C. in 25 mM HEPES, 25 mM MgCl2, 1 mM CaCl2, 10% Glycerine and stored at −80° C.
Perkin Elmer NEX 332 Jod^125 MCP-1, Stock: 2200 Ci/mmol solved in 2000 μl assay buffer, stored at −20° C. THP-1 membrane were adjusted with 25 mM HEPES, pH 7.2; 5 mM MgCl2; 0.5 mM CaCl2; 0.2% BSA assay buffer to a concentration of 2.5 μg/15 μl. Amersham Biosciences PVT-WGA Beads (RPNQ0001) were adjusted with assay buffer to a concentration of 0.24 mg/30 μl. For preparation of the membrane-bead-suspension membranes and beads were incubated for 30 min at RT under rotation (60 rpm) with a ratio of 1:2. Test compounds dissolved in 100% DMSO to a concentration of 10 mM and are further diluted with 100% DMSO to 1 mM. All additional compound dilutions were obtained with assay buffer, final 1% DMSO. Compounds, membrane-bead-suspension and [^125]MCP-1 (ca. 25000 cpm/10 μl) were incubated. Bound radioactivity was determined by scintillation counter after 8 h. Determination of affinity of test compounds (dissociation constant hKi) is calculated by iterative fitting of experimental data using the “easy sys” program, which is based on law of mass action (Schittkowski K. (1994), Numerische Mathematik, Vol. 68, 129-142).

Structure (SMILES): Cc1c(NC[C@H]2CCC[C@@H](c3ccc(C(F)(F)F)cc3)O2)ncnc1C(=O)N1CCC(N2CC3CN(S(C)(=O)=O)CC3C2)CC1 (some centres unmarked) [Example 12]
- Ki (human CCR5): 220 nM
- Ki (CCR2): 1 nM

Structure (SMILES): Cc1c(C(=O)N2CCC(N3CC4CN(S(C)(=O)=O)CC4C3)CC2)ncnc1N1CCc2ccc(C(F)(F)F)cc2C1 (centres unmarked) [Example 13]
- Ki (human CCR5): 2270 nM
- Ki (CCR2): 7 nM

Structure (SMILES): Cc1ccc([C@@H]2CCC[C@H](CNc3ncnc(C(=O)N4CCC(N5CC6CN(S(C)(=O)=O)CC6C5)CC4)c3C)O2)cc1 (some centres unmarked) [Example 14]
- Ki (human CCR5): 330 nM
- Ki (CCR2): 3 nM

Structure (SMILES): Cc1c(Nc2ccc(Cl)c(Cl)c2)ncnc1C(=O)N1CCC(N2CC3CN(S(C)(=O)=O)CC3C2)CC1 (centres unmarked) [Example 15]
- Ki (human CCR5): 400 nM
- Ki (CCR2): 3 nM

Structure (SMILES): Cc1ccc([C@@H]2CCC[C@H](CNc3ncnc(C(=O)N4CCC(N5CC6COCC6C5)CC4)c3C)O2)cc1 (some centres unmarked) [Example 16]
- Ki (human CCR5): 880 nM
- Ki (CCR2): 40 nM

Structure (SMILES): Cc1c(NC[C@H]2CCC[C@@H](c3ccc(C(F)(F)F)cc3)O2)ncnc1C(=O)N1CCC(N2CC3COCC3C2)CC1 (some centres unmarked) [Example 17]
- Ki (human CCR5): 320 nM
- Ki (CCR2): 16 nM

Structure (SMILES): Cc1c(Nc2ccc(Cl)c(Cl)c2)ncnc1C(=O)N1CCC(N2CC3COCC3C2)CC1 (centres unmarked) [Example 18]
- Ki (human CCR5): 930 nM
- Ki (CCR2): 24 nM

Structure (SMILES): COc1nc(NCc2ccc(C(C)(C)C)cc2)c(C)c(C(=O)N2CCC(N3CC4COCC4C3)CC2)n1 (centres unmarked) [Example 19]
- Ki (human CCR5): 4030 nM
- Ki (CCR2): 58 nM

Structure (SMILES): Cc1c(NCc2ccc(C(C)(C)C)cc2)nc(C(F)(F)F)nc1C(=O)N1CCC(N2CC3COCC3C2)CC1 (centres unmarked) [Example 20]
- Ki (human CCR5): 2610 nM
- Ki (CCR2): 69 nM

Structure (SMILES): Cc1c(NC[C@H]2CCC[C@@H](c3ccc(C(F)(F)F)cc3)O2)ncnc1C(=O)N1CCC(N2CCOC3COCCC32)CC1 (some centres unmarked) [Example 21]
- Ki (human CCR5): 200 nM
- Ki (CCR2): 3 nM

Structure (SMILES): Cc1ccc([C@@H]2CCC[C@H](CNc3ncnc(C(=O)N4CCC(N5CCOC6COCCC65)CC4)c3C)O2)cc1 (some centres unmarked) [Example 22]
- Ki (human CCR5): 1170 nM
- Ki (CCR2): 15 nM

Structure (SMILES): Cc1c(C(=O)N2CCC(N3CCOC4COCCC43)CC2)ncnc1N1CCc2ccc(C(F)(F)F)cc2C1 (centres unmarked) [Example 23]
- Ki (human CCR5): 5820 nM
- Ki (CCR2): 17 nM

Structure (SMILES): Cc1c(Nc2ccc(Cl)c(Cl)c2)ncnc1C(=O)N1CCC(N2CCO[C@H]3COCC[C@H]32)CC1 [Example 24]
- Ki (human CCR5): 670 nM
- Ki (CCR2): 2 nM

Structure (SMILES): Cc1nc(Nc2ccc(Cl)c(Cl)c2)c(C)c(C(=O)N2CCC(N3CCO[C@H]4COCC[C@H]43)CC2)n1 [Example 25]
- Ki (human CCR5): 470 nM
- Ki (CCR2): 3 nM

Structure (SMILES): Cc1c(Nc2ccc(Cl)c(Cl)c2)nc(C2CC2)nc1C(=O)N1CCC(N2CCO[C@H]3COCC[C@H]32)CC1 [Example 26]
- Ki (human CCR5): 430 nM
- Ki (CCR2): 0.8 nM

Structure (SMILES): COc1nc(Nc2cccc(C(F)(F)F)c2)c(C)c(C(=O)N2CCC(N3CCO[C@H]4COCC[C@H]43)CC2)n1 [Example 27]
- Ki (human CCR5): 1000 nM
- Ki (CCR2): 3 nM

Structure (SMILES): COc1nc(Nc2ccc(Cl)c(Cl)c2)c(C)c(C(=O)N2CCC(N3CCO[C@H]4COCC[C@H]43)CC2)n1 [Example 28]
- Ki (human CCR5): 390 nM
- Ki (CCR2): 0.9 nM

Structure (SMILES): Cc1c(Nc2cccc(C(F)(F)F)c2)nc(C2CC2)nc1C(=O)N1CCC(N2CCO[C@H]3COCC[C@H]32)CC1 [Example 29]
- Ki (human CCR5): 960 nM
- Ki (CCR2): 1 nM

Structure (SMILES): Cc1nc(Nc2cccc(C(F)(F)F)c2)c(C)c(C(=O)N2CCC(N3CCO[C@H]4COCC[C@H]43)CC2)n1 [Example 30]
- Ki (human CCR5): 1000 nM
- Ki (CCR2): 9 nM

Structure (SMILES): Cc1ccc2c(c1)CN(c1nc(C)nc(C(=O)N3CCC(N4CCO[C@H]5COCC[C@H]54)CC3)c1C)CC2 [Example 31]
- Ki (human CCR5): 7010 nM
- Ki (CCR2): 67 nM

Structure (SMILES): Cc1c(C(=O)N2CCC(N3CC4COCC4C3)CC2)ncnc1N1CCc2ccc(C(F)(F)F)cc2C1 (centres unmarked) [Example 32]
- Ki (human CCR5): 5310 nM
- Ki (CCR2): 80 nM

Structure (SMILES): Cc1c(NCc2ccc(C(C)(C)C)cc2)ncnc1C(=O)N1CCC(N2CC3CN(S(C)(=O)=O)CC3C2)CC1 (centres unmarked) [Example 42]
- Ki (human CCR5): 1820 nM
- Ki (CCR2): 11 nM

Structure (SMILES): Cc1c(NC[C@H]2CCC[C@@H](c3ccccc3)C2)ncnc1C(=O)N1CCC(N2CC3CN(S(C)(=O)=O)CC3C2)CC1 (some centres unmarked) [Example 43]
- Ki (human CCR5): 43 nM
- Ki (CCR2): 1 nM

Structure (SMILES): Cc1c(NC[C@H]2CCC[C@@H](c3ccccc3)C2)ncnc1C(=O)N1CCC(N2CC3COCC3C2)CC1 (some centres unmarked) [Example 44]
- Ki (human CCR5): 65 nM
- Ki (CCR2): 7 nM

Structure (SMILES): Cc1c(NCc2ccc(C(C)(C)C)cc2)ncnc1C(=O)N1CCC(N2CC3COCC3C2)CC1 (centres unmarked) [Example 45]
- Ki (human CCR5): 4110 nM
- Ki (CCR2): 36 nM
